From the supplement of paper PMC10307832

How the values were obtained:
Assay in all cases: relative viability (nuclei count vs DMSO), 5 days (fraction); higher = more cells survive
[1] = compound: C1CSC2=C(C(=O)N1)SC3=C2C=C(C=C3)O [kb NB 142-70] + C[C@]1(O)C[C@@H](c2nc(-c3ccc4ccc(-c5ccccc5)nc4c3)c3c(N)nccn32)C1 [Linsitinib] (partner 1 µM)
How it was run: (§1)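 Lung cancer cell lines were seeded in 1536-well plates and dosed by pin tool the next day, with either a single drug or a fixed anchor-drug dose combined with five library-drug doses (not always all listed) spaced in √10 steps. Five days later, one step fixed the cells and stained their nuclei (final 0.05% Triton X-100, 1% formaldehyde, 1 ug/ml Hoechst), and nuclei were counted on 4× images. Relative viability is the nuclei count in treated wells divided by the count in vehicle wells, and each value is the median of duplicate plates.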

[2] = compound: C1CSC2=C(C(=O)N1)SC3=C2C=C(C=C3)O [kb NB 142-70] + Cc1nc(NC(=O)N2CCC[C@H]2C(N)=O)sc1-c1ccnc(C(C)(C)C(F)(F)F)c1 [Alpelisib] (partner 2 µM)
How it was run: as §1

[3] = compound: NCC(=O)Nc1ccc(-n2nc(C(F)(F)F)cc2-c2ccc3c(ccc4ccccc43)c2)cc1 + Nc1nc2[nH]cc(CCc3ccc(C(=O)N[C@@H](CCC(=O)O)C(=O)O)cc3)c2c(=O)[nH]1 [Pemetrexed] (partner 0.2 µM)
How it was run: as §1

[4] = compound: NCC(=O)Nc1ccc(-n2nc(C(F)(F)F)cc2-c2ccc3c(ccc4ccccc43)c2)cc1 + CS(=O)(=O)N1CCN(Cc2cc3nc(-c4cccc5[nH]ncc45)nc(N4CCOCC4)c3s2)CC1 [Pictilisib] (partner 1 µM)
How it was run: as §1

| Cell Line | relative viability ([1]; first compound 0.1 µM) | relative viability ([1]; first compound 1 µM) | relative viability ([1]; first compound 3.162 µM) | relative viability ([2]; first compound 0.1 µM) | relative viability ([2]; first compound 1 µM) | relative viability ([2]; first compound 3.162 µM) | relative viability ([3]; first compound 0.02 µM) | relative viability ([3]; first compound 0.06325 µM) | relative viability ([3]; first compound 0.2 µM) | relative viability ([3]; first compound 0.6325 µM) | relative viability ([3]; first compound 2 µM) | relative viability ([4]; first compound 0.02 µM) | relative viability ([4]; first compound 0.06325 µM) | relative viability ([4]; first compound 0.2 µM) | relative viability ([4]; first compound 0.6325 µM) | relative viability ([4]; first compound 2 µM) |
| --- | --- | --- | --- | --- | --- | --- | --- | --- | --- | --- | --- | --- | --- | --- | --- | --- |
| NCI-H1944 | 1.17 | 1.24 | 1.18 | 0.874 | 0.817 | 0.853 | 0.609 | 0.731 | 0.642 | 0.553 | 0.575 | 0.349 | 0.359 | 0.326 | 0.35 | 0.331 |
| LU99A | 0.519 | 0.518 | 0.341 | 0.517 | 0.499 | 0.354 | 0.182 | 0.153 | 0.202 | 0.164 | 0.168 | 0.338 | 0.36 | 0.321 | 0.311 | 0.294 |
| SW 1573 | 0.744 | 0.693 | 0.351 | 0.86 | 0.549 | 0.529 | 0.847 | 0.805 | 0.81 | 0.796 | 0.75 | 0.513 | 0.545 | 0.493 | 0.514 | 0.486 |
| NCI-H2347 | 0.975 | 1.03 | 1.03 | 0.963 | 1.09 | 1.01 | 0.403 | 0.421 | 0.409 | 0.432 | 0.496 | 0.831 | 0.668 | 0.706 | 0.738 | 0.711 |
| NCI-H2009 | 1.26 | 1.26 | 0.955 | 1.04 | 1.2 | 0.72 | 1.03 | 1.01 | 1.08 | 1.05 | 1.04 | 0.734 | 0.906 | 0.819 | 0.86 | 0.967 |
| HCC-15 | 0.86 | 0.89 | 0.697 | 0.908 | 0.787 | 0.626 | 0.209 | 0.209 | 0.212 | 0.217 | 0.229 | 0.705 | 0.773 | 0.8 | 0.747 | 0.743 |
| HCC-44 | 0.689 | 0.716 | 0.658 | 0.772 | 0.875 | 0.735 | 0.634 | 0.624 | 0.682 | 0.657 | 0.63 | 0.5 | 0.638 | 0.633 | 0.684 | 0.659 |
| COR-L23 | 0.953 | 0.901 | 0.303 | 0.757 | 0.808 | 0.282 | 0.197 | 0.203 | 0.209 | 0.169 | 0.202 | 0.712 | 0.767 | 0.95 | 0.798 | 0.613 |
| HCC-78 | 0.491 | 0.569 | 0.467 | 0.363 | 0.348 | 0.335 | 0.977 | 0.894 | 0.884 | 0.903 | 0.89 | 0.208 | 0.245 | 0.216 | 0.205 | 0.203 |
| NCI-H1299 | 1.07 | 1.07 | 1.14 | 1.02 | 1.11 | 1.17 | – | – | – | – | – | 0.346 | 0.8 | 0.804 | 0.781 | 0.732 |
| NCI-H727 | 0.356 | 0.323 | 0.28 | 0.65 | 0.72 | 0.495 | – | – | – | – | – | 0.427 | 0.45 | 0.406 | 0.362 | 0.533 |
| NCI-H2087 | 1.05 | 0.956 | 0.915 | 1.16 | 1.22 | 0.858 | 0.619 | 0.685 | 0.681 | 0.639 | 0.718 | 0.77 | 0.709 | 0.723 | 0.801 | 0.848 |
| BEN | 0.793 | 0.893 | 0.724 | 0.922 | 0.982 | 0.689 | 0.782 | 0.869 | 0.775 | 0.758 | 0.688 | 0.54 | 0.581 | 0.55 | 0.547 | 0.576 |
| LCLC-103H | 0.989 | 1.2 | 1.15 | 0.998 | 0.944 | 0.961 | 0.406 | 0.481 | 0.434 | 0.447 | 0.437 | 0.606 | 0.61 | 0.571 | 0.648 | 0.673 |
| EKVX | 0.969 | 1.01 | 1.04 | 0.854 | 0.849 | 0.96 | 0.38 | 0.358 | 0.408 | 0.439 | 0.403 | 0.531 | 0.493 | 0.466 | 0.45 | 0.531 |
| ABC-1 | 0.976 | 0.984 | 0.683 | 1.16 | 0.932 | 0.796 | – | – | – | – | – | 0.808 | 0.81 | – | 0.745 | 0.563 |
| NCI-H1650 | – | – | – | – | – | – | 0.399 | 0.423 | 0.331 | 0.485 | 0.38 | 0.616 | 0.656 | 0.215 | 0.652 | 0.556 |
| ChaGo-K-1 | – | – | – | – | – | – | 0.256 | 0.263 | 0.263 | 0.27 | 0.264 | 0.617 | 0.784 | 0.394 | 0.676 | 1.04 |
| SW 900 | – | – | – | – | – | – | 0.501 | 0.495 | 0.453 | 0.508 | 0.495 | – | – | – | – | – |
| A549 | 0.551 | 0.524 | 0.499 | 0.714 | 0.654 | 0.14 | – | – | – | – | – | 0.459 | 0.495 | 0.564 | 0.565 | 0.517 |
| NCI-H2342 | – | – | – | – | – | – | 0.796 | 0.757 | 0.764 | 0.762 | 0.812 | – | – | – | – | – |
| NCI-H2170 | – | – | – | 0.76 | 0.852 | 0.561 | 0.251 | 0.262 | 0.239 | 0.265 | 0.269 | 0.233 | 0.325 | 0.319 | 0.328 | 0.323 |
| NCI-H522 | – | – | – | – | – | – | 0.968 | 0.973 | 0.874 | 0.86 | 1.07 | – | – | – | – | – |
| IA-LM | 0.621 | 0.771 | 0.87 | 0.795 | 0.759 | 0.756 | – | – | – | – | – | 0.444 | 0.356 | 0.302 | 0.477 | 0.288 |
| EBC-1 | 0.897 | 0.952 | 0.817 | 0.864 | 0.798 | 0.491 | – | – | – | – | – | 0.324 | 0.37 | 0.434 | 0.36 | 0.404 |
